*1 amine or outer side, *2 acyl side, *3 side chain or, on linkers, in order; H or OH if unused. Where a SMILES comes first, the peptide text is derived from it. Side-chain parts run from the residue outwards. [ ]: non-standard residue; d: D form. The star is where a group is joined. C20 diacid = O=C(O)CCCCCCCCCCCCCCCCCCC(=O)*; γGlu = O=C(O)[C@H](CCC(=O)[*:2])N[*:1]; AEEA = NCCOCCOCC(=O)O; Aib = CC(C)(N)C(=O)O
Biological target: T1, human GLP-1 receptor (GLP-1R) (Homo sapiens, UniProt P43220)
T1 construct: expressed in transfected cells
T1 sequence (P43220 24-463): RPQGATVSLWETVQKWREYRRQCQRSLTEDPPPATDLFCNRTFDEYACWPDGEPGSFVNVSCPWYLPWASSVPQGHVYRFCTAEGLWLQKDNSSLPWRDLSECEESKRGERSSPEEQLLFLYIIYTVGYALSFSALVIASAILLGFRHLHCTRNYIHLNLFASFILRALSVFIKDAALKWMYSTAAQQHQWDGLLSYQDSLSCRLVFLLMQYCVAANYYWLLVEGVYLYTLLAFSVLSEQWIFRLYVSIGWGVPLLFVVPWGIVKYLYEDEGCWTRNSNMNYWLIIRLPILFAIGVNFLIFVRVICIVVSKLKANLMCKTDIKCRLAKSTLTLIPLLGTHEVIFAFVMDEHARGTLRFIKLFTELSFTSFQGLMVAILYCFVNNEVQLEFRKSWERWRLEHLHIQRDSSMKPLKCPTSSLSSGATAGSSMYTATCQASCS
Assay: cAMP accumulation assay, CHO-K1 cells stably expressing human GLP-1R
Type: cell-based
Conditions: cAMP accumulation, mean pEC50, Table 10
Procedure: In the presence of the non-specific cAMP/cGMP phosphodiesterase inhibitor, 3-isobutyl-1-methylxanthine (IBMX), accumulating cAMP can be measured in vitro using common detection methods. Thus, it is possible to estimate an in vitro potency (pEC50) for peptides activating each of these receptors using fit dose-response curves for cAMP accumulation.
CHO-K1 cells stably expressing human GLP-1R (Genebank accession #NM_002062) were grown in 90% F12-K media supplemented with 10% FBS and 250 μg/ml G418.
On day 1, CHO-K1 cells were plated at 1.5 million cells per T75 flask in 90% F12-K media supplemented with 10% FBS. On day 3 cells were transfected with 40 mcg of each expression plasmid using Lipofectamine 2000 transfection reagent. On day 5, cells were dispensed at 1000 cells per well in white 384-well OptiPlates in 5 mcL of assay buffer consisting of 1×HBSS, 5 mM HEPES, 0.5 mM IBMX, and 0.1% casein.
Peptides were serially diluted 4-fold in assay buffer to final concentrations ranging from 1×10^−9 M to 9.5×10^−16 M. Two assay controls consisting of 50 mcM forskolin (cAMP system maximum) or assay buffer only (cAMP system minimum) were also prepared. Five microliters of each peptide-concentration, or assay control, was added to triplicate wells and incubated for thirty minutes at room temperature. During this incubation step a 4× europium labelled cAMP tracer solution and a 4× Ulight®-anti-cAMP solution (consisting of an anti-cAMP monoclonal antibody labelled with Ulight™ dye) was prepared according to the manufacturer's protocol (PerkinElmer LANCE Ultra cAMP kit). Following this incubation, 5 mcL europium labelled cAMP and 5 mcL Ulight anti-cAMP antibody was added to each well. The plate was covered to prevent evaporation and incubated for 60 minutes at room temperature in the dark. Plates were read on an Envision fluorescent plate reader (PerkinElmer).
Test values were first normalized to the system maximum and system minimum averaged values in Excel using the formula: (test value−system min average)/(system max average -system min average)*100. Normalized test values represent a baseline corrected percentage of the system maximum cAMP response induced by forskolin. Data from up to 3 replicate tests were analyzed for each peptide. Potency values were estimated using GraphPad Prism software (v7.04) by fitting data to a 4-parameter logistic curve model: Y=Bottom+(Top−Bottom)/(1+10^((LogEC50−X))). The Hill slope was constrained to 1.0. EC50 values were converted to pEC50 values using the formula: pEC50=−Log (EC50).

| SMILES | EC50 [nM] |
| --- | --- |
| CC(C)C[C@H](NC(=O)[C@H](Cc1ccc(O)cc1)NC(=O)[C@H](CCCCN)NC(=O)[C@H](CO)NC(=O)[C@H](Cc1ccc(O)cc1)NC(=O)[C@H](CC(=O)O)NC(=O)[C@H](CO)NC(=O)[C@@H](NC(=O)[C@H](Cc1ccccc1)NC(=O)[C@@H](NC(=O)CNC(=O)[C@H](Cc1c[nH]cn1)NC(=O)[C@H](CO)NC(=O)[C@@H](N)Cc1ccc(O)cc1)[C@@H](C)O)[C@@H](C)O)C(=O)N[C@@H](CC(=O)O)C(=O)N[C@@H](CCCCNC(=O)CC[C@H](NC(=O)CC[C@H](NC(=O)COCCOCCNC(=O)CCCCCCCCCCCCCCCCCCC(=O)O)C(=O)O)C(=O)O)C(=O)N[C@@H](CCCCN)C(=O)N[C@@H](Cc1ccc(O)cc1)C(=O)N[C@@H](C)C(=O)N[C@@H](CCC(N)=O)C(=O)N[C@@H](CCC(=O)O)C(=O)N[C@@H](Cc1ccccc1)C(=O)N[C@H](C(=O)NC(C)(C)C(=O)N[C@@H](Cc1c[nH]c2ccccc12)C(=O)N[C@@H](CC(C)C)C(=O)N[C@@H](CCC(=O)O)C(=O)N[C@@H](CC(N)=O)C(=O)N[C@@H](CCC(=O)O)C(=O)N1CCC[C@H]1C(=O)N[C@@H](CO)C(=O)N[C@@H](CO)C(=O)NCC(=O)N[C@@H](C)C(=O)N1CCC[C@H]1C(=O)N1CCC[C@H]1C(=O)N1CCC[C@H]1C(=O)N[C@@H](CO)C(=O)O)C(C)C [Compound A16] (H-YSHGTFTSDYSKYLDK([γGlu-γGlu-AEEA-C20 diacid])KYAQEFV[Aib]WLENEPSSGAPPPS-OH) | > 1 |
| CC(C)C[C@H](NC(=O)[C@H](Cc1ccc(O)cc1)NC(=O)[C@H](CCCCN)NC(=O)[C@H](CO)NC(=O)[C@H](Cc1ccc(O)cc1)NC(=O)[C@H](CC(=O)O)NC(=O)[C@H](CO)NC(=O)[C@@H](NC(=O)[C@H](Cc1ccccc1)NC(=O)[C@@H](NC(=O)CNC(=O)[C@H](Cc1c[nH]cn1)NC(=O)[C@H](CO)NC(=O)[C@@H](N)Cc1ccc(O)cc1)[C@@H](C)O)[C@@H](C)O)C(=O)N[C@@H](CC(=O)O)C(=O)N[C@@H](CCCCNC(=O)CC[C@H](NC(=O)CC[C@H](NC(=O)COCCOCCNC(=O)CCCCCCCCCCCCCCCCCCC(=O)O)C(=O)O)C(=O)O)C(=O)N[C@@H](CCCCN)C(=O)N[C@@H](Cc1ccc(O)cc1)C(=O)N[C@@H](C)C(=O)N[C@@H](CCC(N)=O)C(=O)N[C@@H](CCC(=O)O)C(=O)N[C@@H](Cc1ccccc1)C(=O)N[C@H](C(=O)NC(C)(C)C(=O)N[C@@H](Cc1c[nH]c2ccccc12)C(=O)N[C@@H](CC(C)C)C(=O)N[C@@H](CCC(=O)O)C(=O)N[C@@H](CCC(=O)O)C(=O)N[C@@H](CCC(=O)O)C(=O)N1CCC[C@H]1C(=O)N[C@@H](CO)C(=O)N[C@@H](CO)C(=O)NCC(=O)N[C@@H](C)C(=O)N1CCC[C@H]1C(=O)N1CCC[C@H]1C(=O)N1CCC[C@H]1C(=O)N[C@@H](CO)C(=O)O)C(C)C [Compound A15] (H-YSHGTFTSDYSKYLDK([γGlu-γGlu-AEEA-C20 diacid])KYAQEFV[Aib]WLEEEPSSGAPPPS-OH) | > 1 |
